In patent US11980609B2, “LPA receptor antagonists and uses thereof” (Gilead Sciences, Inc., priority 2021, dated 2024):

target: T1, human LPAR1 (Homo sapiens, UniProt Q92633); assay: LPAR1 intracellular calcium mobilization assay (antagonist mode); format: cell-based; details: CHO-K1 EDG2 cells expressing human LPAR1; 60 min pre-incubation with compound (0.5 nM to 10 μM), then LPA 18:2 challenge; FLIPR Tetra calcium signal
T1 construct: host or cells: CHO-K1
Protocol: In vitro LPAR1 activity was measured in an intracellular calcium mobilization assay.
CHO-K1 EDG2 cells (DiscoverX cat #93-0644C2) expressing human LPAR1 (NM_001401.3) were seeded in a total volume of 25 μL of Dulbecco's Modification of Eagle's Medium (DMEM) with 10% Fetal Bovine Serum, 1× PenStrepGlutamine, 300 μg/ml Hygromycin, and 800 μg/ml G418 into 384-well tissue culture plate (Grenier #781091) at 15,000 cells/well and incubated at 37° C. overnight. Prior to testing, 25 μL Calcium Loading Dye Component A (FLIPR Calcium 6 Assay Kit Molecular Device #R8190) and 2.5 mM Probenecid (Invitrogen #P36400, prepared fresh) in Hank's Balanced Salt Solution (Corning #21-023-CV), 20 mM HEPES (Corning #25-060-CI), 0.1% Bovine Serum Albumin (Sigma-Aldrich #A7906-500G) was add to the cells for 60 minutes at 37° C.
Agonist dose curves of LPA 18:2 (Avanti Polar Lipids cat #857138, 0.5 nM to 10 μM) were recorded to determine the LPA 18:2 EC80 for subsequent antagonist assays. For agonist dose curves, cells were removed from the incubator 2 hours after dye loading and transferred to the FLIPR Tetra instrument (Molecular Devices, San Jose, CA). Calcium mobilization was monitored for 5 min and 10 μL 6×LPA in HBSS/20 mM Hepes/0.1% bovine serum albumin (BSA) was added to the cells 5 seconds into the assay.
To determine the LPAR1 antagonist activity of test compounds, cells were pre-incubated with test compound at a dose range of 0.5 nM to 10 μM, followed by LPA at […] concentration (100 nM). After dye loading, cells were removed from the incubator and 0.3 μL of 200× antagonist was added. Cells were incubated for 60 minutes at 37° C. Antagonist activity was measured on a FLIPR Tetra. Calcium mobilization was monitored for 3.5 minutes and 10 μL 6×EC80 LPA in HBSS, 20 mM HEPES, and 0.1% BSA was added to the cells 5 seconds into the assay. Signal amplitude (Maximum minus minimum) values were plotted against log10 of antagonist concentration using Dose Response Tool (Gilead Sciences Inc.) to determine EC50.
To assess the antagonistic potential of exemplified compounds EC50 values were determined for Compounds 1 to 55 in the LPAR1 calcium mobilization assay. The compound numbers correspond to the compound numbers in Examples 1 to 35. N/A=not available.

T1 sequence (Q92633 whole entry): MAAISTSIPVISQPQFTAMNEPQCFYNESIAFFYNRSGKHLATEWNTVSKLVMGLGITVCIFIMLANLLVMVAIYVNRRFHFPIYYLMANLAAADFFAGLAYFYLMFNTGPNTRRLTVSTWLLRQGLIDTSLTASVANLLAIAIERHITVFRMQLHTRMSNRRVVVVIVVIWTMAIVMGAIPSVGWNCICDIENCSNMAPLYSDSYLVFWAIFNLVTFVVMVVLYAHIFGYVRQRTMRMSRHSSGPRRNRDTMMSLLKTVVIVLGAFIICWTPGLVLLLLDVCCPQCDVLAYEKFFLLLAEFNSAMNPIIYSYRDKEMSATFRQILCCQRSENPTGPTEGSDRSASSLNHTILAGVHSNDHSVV

Row | Compound | EC50 [nM]
1 | C[C@@H](OC(=O)Nc1c(-c2ncc(NC(=O)c3cnc(C(F)F)nc3)cn2)cnn1C)c1cc(F)cnc1F [Compound 24, (R)-1-(2,5-difluoropyridin-3-yl)ethyl (4-(5-(2-(difluoromethyl)pyrimidine-5-carboxamido)pyrimidin-2-yl)-1-methyl-1H-pyrazol-5-yl)carbamate] | 26.8
2 | C[C@@H](OC(=O)Nc1c(-c2ncc(NC(=O)c3ccc(Cl)nc3)cn2)cnn1C)c1cc(F)cnc1F [Compound 26, (R)-1-(2,5-difluoropyridin-3-yl)ethyl (4-(5-(6-chloronicotinamido)pyrimidin-2-yl)-1-methyl-1H-pyrazol-5-yl)carbamate] | 20.6
3 | C[C@@H](OC(=O)Nc1c(-c2ncc(NC(=O)c3ccc(C(F)(F)F)nc3)cn2)cnn1C)c1cc(F)cnc1F [Compound 27, (R)-1-(2,5-difluoropyridin-3-yl)ethyl (1-methyl-4-(5-(6-(trifluoromethyl)nicotinamido)pyrimidin-2-yl)-1H-pyrazol-5-yl)carbamate] | 28
4 | C[C@@H](OC(=O)Nc1c(-c2ncc(NC(=O)[C@@H]3C[C@H]3C(F)(F)F)cn2)cnn1C)c1cc(F)cnc1F [Compound 29, (R)-1-(2,5-difluoropyridin-3-yl)ethyl (1-methyl-4-(5-((1R,2R)-2-(trifluoromethyl)cyclopropane-1-carboxamido)pyrimidin-2-yl)-1H-pyrazol-5-yl)carbamate] | < 4.6
5 | C[C@@H](OC(=O)Nc1c(-c2ncc(NC(=O)[C@@H]3C[C@H]3C(F)(F)F)cn2)cnn1C)c1cccnc1Cl [Compound 32, (R)-1-(2-chloropyridin-3-yl)ethyl (1-methyl-4-(5-((1R,2R)-2-(trifluoromethyl)cyclopropane-1-carboxamido)pyrimidin-2-yl)-1H-pyrazol-5-yl)carbamate] | < 4.6
6 | C[C@@H](OC(=O)Nc1c(-c2ncc(NC(=O)[C@@H]3C[C@H]3c3cccnc3)cn2)cnn1C)c1cc(F)cnc1F [Compound 33, (R)-1-(2,5-difluoropyridin-3-yl)ethyl (1-methyl-4-(5-((1R,2R)-2-(pyridin-3-yl)cyclopropane-1-carboxamido)pyrimidin-2-yl)-1H-pyrazol-5-yl)carbamate] | 20.3
7 | C[C@@H](OC(=O)Nc1c(-c2ncc(NC(=O)[C@@H]3C[C@H]3C(F)F)cn2)cnn1C)c1cc(F)cnc1F [Compound 34, (R)-1-(2,5-difluoropyridin-3-yl)ethyl (4-(5-((1R,2R)-2-(difluoromethyl)cyclopropane-1-carboxamido)pyrimidin-2-yl)-1-methyl-1H-pyrazol-5-yl)carbamate] | 11.6

Results, then the compound that gave them:

Row | EC50 [nM] | Compound
8 | 60.5 | C[C@@H](OC(=O)Nc1c(-c2ncc(NC(=O)C3(C(F)F)CC3)cn2)cnn1C)c1cc(F)cnc1Cl [Compound 25, (R)-1-(2-chloro-5-fluoropyridin-3-yl)ethyl (4-(5-(1-(difluoromethyl)cyclopropane-1-carboxamido)pyrimidin-2-yl)-1-methyl-1H-pyrazol-5-yl)carbamate]
9 | 216 | C[C@@H](OC(=O)Nc1c(-c2ncc(NC(=O)C3(C(F)F)CC3)cn2)cnn1C)c1cc(F)cnc1F [Compound 28, (R)-1-(2,5-difluoropyridin-3-yl)ethyl (4-(5-(1-(difluoromethyl)cyclopropane-1-carboxamido)pyrimidin-2-yl)-1-methyl-1H-pyrazol-5-yl)carbamate]
10 | 36.2 | C[C@@H](OC(=O)Nc1c(-c2ncc(NC(=O)C34CC(F)(C3)C4)cn2)cnn1C)c1cc(F)cnc1F [Compound 30, (R)-1-(2,5-difluoropyridin-3-yl)ethyl (4-(5-(3-fluorobicyclo[1.1.1]pentane-1-carboxamido)pyrimidin-2-yl)-1-methyl-1H-pyrazol-5-yl)carbamate]
11 | 23.7 | C[C@@H](OC(=O)Nc1c(-c2ncc(NC(=O)C34CC(C(F)F)(C3)C4)cn2)cnn1C)c1cc(F)cnc1F [Compound 31, (R)-1-(2,5-difluoropyridin-3-yl)ethyl (4-(5-(3-(difluoromethyl)bicyclo[1.1.1]pentane-1-carboxamido)pyrimidin-2-yl)-1-methyl-1H-pyrazol-5-yl)carbamate]
